In one data set the test system is stomach. The experiment in a line: Acute ulcerogenic side effect. It is filed as in vivo. Particulars: mice; for Abou Zeit Har Score (ulcer index): intraperitoneal, indomethacin 5 mg/kg, celecoxib 20 mg/kg, means ± SD; for Gastric mucosa finding (ulcers) on examination: stomach examined after sacrifice.
The subject of a further data set is COX-1 mRNA. The experiment in a line: Real-time PCR of inflamed paw tissue, COX-1 gene expression. It is filed as in vivo, Mouse. To be noted: paw tissue after formalin test; 2^-ΔΔCt method; means ± SD. A general note: Real-time PCR tracks product formation cycle by cycle.
Another data set concerns COX-2 mRNA. Nature of the data set: Real-time PCR of inflamed paw tissue, COX-2 gene expression. It is filed as in vivo, Mouse. To be noted: paw tissue after formalin test; 2^-ΔΔCt method; means ± SD.
For a further data set, the system named is LOX mRNA. The experiment in a line: Real-time PCR of inflamed paw tissue, LOX gene expression. In kind it is in vivo, Mouse. To be noted: paw tissue after formalin test, 2^-ΔΔCt method, means ± SD.

The text below walks through data of article PMC9377232 (Journal of Enzyme Inhibition and Medicinal Chemistry, 2022).

Marks after values point to notes of the source that are not given here.

On to `Cc1ccc(-c2cc(C(F)(F)F)nn2-c2ccc(S(N)(=O)=O)cc2)cc1` [Celecoxib], for which, in the data set on stomach, the “Abou Zeit Har Score (ulcer index)” value came to 0.6 ± 0.58 and the “Gastric mucosa finding (ulcers) on examination” value is reported as “preserved the integrity of the mucosa”.
For `COc1ccc2c(c1)c(CC(=O)O)c(C)n2C(=O)c1ccc(Cl)cc1` [Indomethacin], the “COX-1 mRNA relative expression (real-time PCR)” value with COX-1 mRNA was 0.82 ± 0.02. In the data set with COX-2 mRNA, the “COX-2 mRNA relative expression (real-time PCR)” value is 0.17 ± 0.01^a. Moreover, the “LOX mRNA relative expression (real-time PCR)” value is 1.32 ± 0.01 with LOX mRNA and “not affected” in the data set on LOX mRNA (listed as indomethacin). Besides, in the data set on stomach, the “Abou Zeit Har Score (ulcer index)” value is given as 11.2 ± 1.64. Moreover, in the data set with stomach, the “Gastric mucosa finding (ulcers) on examination” value is recorded as “large ulcers”.
